Test results published in patent publication US5380745A, “Medicinal composition” (Meiiji Seika Kaisha, Ltd., priority 1991, dated 1995).
Read-outs that look alike come from different tables or passages of the source.

How the values were obtained:
[1] = Water solubility of PF1022 substance (elution into buffer, HPLC); format: physicochemical; conditions: aqueous buffer, 40 °C, 50 mg PF1022 substance in 50 ml, read-out: Concentration of PF1022 substance
Procedure: The compositions of Examples 1 to 9 and PF1022 substance alone, employed as a control, were tested. Each composition was weighed in a 100 ml-Erlenmeyer flask, in an amount corresponding to 50 mg of PF1022 substance and 50 ml of McDougall buffer or Clark Lubs buffer was added thereto. McDougall buffer is prepared by dissolving 7.43 g of sodium hydrogencarbonate, 7.0 g of disodium phosphate 12-hydrate, 0.34 g of sodium chloride, 0.43 g of potassium chloride, 0.10 g of magnesium chloride hexahydrate and 0.05 g of calcium chloride in 1,000 ml of water and saturating the mixture with carbon dioxide gas (pH 6.8). Clark Lubs buffer is prepared by adding 50 ml of 0.2N potassium chloride and 10.6 ml of 0.2N hydrochloric acid to 139.4 ml of water (pH 2.0). The mixture was shaken in a thermostat at 40 °±0.5° C. at a vibrational amplitude of 4 cm at 60 rpm to figure eight. Sampling was made with the lapse of time and the amount of the eluate was determined by high performance liquid chromatography.

[2] = tested on: parasites in digestive tract of unigastric animals; conditions: used alone; unigastric animals such as fowl, dog, cat and swine; cited from earlier work
[3] = tested on: sheep nematodes in the digestive tract; assay: Anthelmintic effect on sheep nematodes in the digestive tract (EPG); format: in vivo; conditions: PF1022 substance alone oral 25 mg/kg/day for two days
Procedure: (§1) The medicinal composition of the present invention was administered to animals in an amount corresponding to a definite amount of PF1022 substance. The whole feces was collected everyday and the number of parasitic eggs per gram of the feces (EPG) were counted. Two weeks after the initiation of the administration, each animal was dissected and the number of parasites remaining in the intestine were counted.
(§2) The medicinal composition obtained in Example 1 was orally administered in a dose as corresponding to 25 mg of PF1022 substance/kg/day for two days. As a control, PF1022 substance alone was administered in the same manner as those described above. […] Each of the medicinal composition as shown in Table 4 was orally administered in a dose corresponding to 5 mg of PF1022 substance/kg/day for two days. As a control, PF1022 substance alone was orally administered in a dose of 25 mg/kg/day for two days.

[4] = PF1022 substance, in words, cited from earlier work
[5] = tested on: cattle nematodes in the digestive tract; assay: Anthelmintic effect on cattle nematodes in the digestive tract (EPG); format: in vivo; conditions: oral 25 mg PF1022 substance/kg/day for two days
Procedure: as §1, §2

[6] = tested on: parasites; conditions: rumenal animals such as cattle, sheep and goat; cited from earlier work

CC(C)CC1C(=O)OC(Cc2ccccc2)C(=O)N(C)C(CC(C)C)C(=O)OC(C)C(=O)N(C)C(CC(C)C)C(=O)OC(Cc2ccccc2)C(=O)N(C)C(CC(C)C)C(=O)OC(C)C(=O)N1C (stereo not shown) [PF1022 substance]
solubility at 1 h ([1]; Clark Lubs buffer (pH 2.0)): < 1 µg/mL | solubility at 24 h ([1]; Clark Lubs buffer (pH 2.0)): < 1 µg/mL | solubility at 1 h ([1]; McDougall buffer (pH 6.8)): < 1 µg/mL | solubility at 24 h ([1]; McDougall buffer (pH 6.8)): < 1 µg/mL | anthelmintic effect [2]: particularly marked anthelmintic effect | Number of eggs per gram of feces (EPG) ([3]; day 0): 2997 EPG | Number of eggs per gram of feces (EPG) ([3]; day 1): 2313 EPG | Number of eggs per gram of feces (EPG) ([3]; day 3): 13 EPG | Number of eggs per gram of feces (EPG) ([3]; day 5): 9 EPG | Number of eggs per gram of feces (EPG) ([3]; day 7): 32 EPG | Number of eggs per gram of feces (EPG) ([3]; day 10): 12 EPG | Number of eggs per gram of feces (EPG) ([3]; day 14): 8 EPG | solubility in water [4]: extremely poor solubility in water | solubility in water ([4]; listed as PF1022 Substance): practically insoluble or hardly dispersible in water | Number of eggs per gram of feces (EPG) ([5]; day 0): 112 EPG | Number of eggs per gram of feces (EPG) ([5]; day 1): 80 EPG | Number of eggs per gram of feces (EPG) ([5]; day 3): 34 EPG | Number of eggs per gram of feces (EPG) ([5]; day 5): 41 EPG | Number of eggs per gram of feces (EPG) ([5]; day 7): 49 EPG | Number of eggs per gram of feces (EPG) ([5]; day 10): 36 EPG | Number of eggs per gram of feces (EPG) ([5]; day 14): 40 EPG | dosage required relative to unigastric animals [6]: 5 to 10 times
